Experimental data reported in patent US9738655B2, “Tetrahydroisoquinolines containing substituted azoles as factor XIa inhibitors” (BRISTOL-MYERS SQUIBB COMPANY, priority 2013, dated 2017).
Structures can show the parent of a compound that is named as a salt. Where two headings read alike, the source gives them in different places.

Tests used:
[1] = biological target: purified human plasma kallikrein (Homo sapiens (Human), UniProt P03952); assay: Plasma kallikrein enzyme inhibition assay (chromogenic substrate S-2302); assay type: biochemical
Chain of purified human plasma kallikrein (P03952 391-638): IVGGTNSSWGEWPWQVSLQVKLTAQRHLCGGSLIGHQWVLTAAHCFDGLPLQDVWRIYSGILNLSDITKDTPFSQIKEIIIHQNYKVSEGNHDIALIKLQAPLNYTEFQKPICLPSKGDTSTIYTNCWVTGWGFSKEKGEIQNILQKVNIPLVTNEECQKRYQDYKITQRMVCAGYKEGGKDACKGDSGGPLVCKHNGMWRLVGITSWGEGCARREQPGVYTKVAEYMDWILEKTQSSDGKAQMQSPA
Chain of purified human plasma kallikrein (P03952 20-390 partner): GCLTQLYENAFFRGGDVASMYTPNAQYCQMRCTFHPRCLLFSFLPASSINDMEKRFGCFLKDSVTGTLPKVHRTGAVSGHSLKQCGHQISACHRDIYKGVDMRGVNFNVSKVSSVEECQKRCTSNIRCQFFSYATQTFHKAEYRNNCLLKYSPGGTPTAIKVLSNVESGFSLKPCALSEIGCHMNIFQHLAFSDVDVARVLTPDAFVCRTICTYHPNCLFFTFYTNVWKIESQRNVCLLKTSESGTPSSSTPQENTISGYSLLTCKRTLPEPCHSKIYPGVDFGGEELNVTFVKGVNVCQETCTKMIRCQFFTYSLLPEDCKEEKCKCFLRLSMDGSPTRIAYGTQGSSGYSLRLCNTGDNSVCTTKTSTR
Experimental: The effectiveness of compounds of the present invention as inhibitors of the coagulation Factors XIa, VIIa, IXa, Xa, XIIa, plasma kallikrein or thrombin, can be determined using a relevant purified serine protease, respectively, and an appropriate synthetic substrate. The rate of hydrolysis of the chromogenic or fluorogenic substrate by the relevant serine protease was measured both in the absence and presence of compounds of the present invention. […] A decrease in the rate of absorbance or fluorescence change in the presence of inhibitor is indicative of enzyme inhibition. […] The results of this assay are expressed as the inhibitory constant, Ki.
Values of Ki were determined by allowing the protease to react with the substrate in the presence of the inhibitor.
The following relationships were used to calculate Ki values: (Vmax*S)/(Km+S); (vo−vs)/vs=I/(Ki(1+S/Km)) for a competitive inhibitor with one binding site; or vs/vo=A+((B−A)/1+((IC50/(I)n))); and Ki−IC50/((1+S/Km) for a competitive inhibitor where:

[2] = biological target: purified human Factor XIa (Homo sapiens (Human), UniProt P03951); assay: Factor XIa enzyme inhibition assay (chromogenic substrate S-2366)
Chain of purified human Factor XIa (P03951 388-625): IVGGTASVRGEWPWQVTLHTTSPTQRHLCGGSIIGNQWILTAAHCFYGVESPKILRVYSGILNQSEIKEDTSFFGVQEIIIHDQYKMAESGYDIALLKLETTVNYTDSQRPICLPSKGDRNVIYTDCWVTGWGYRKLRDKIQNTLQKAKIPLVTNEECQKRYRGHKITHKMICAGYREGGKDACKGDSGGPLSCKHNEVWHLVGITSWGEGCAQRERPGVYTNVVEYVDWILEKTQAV
Chain of purified human Factor XIa (P03951 19-387 partner): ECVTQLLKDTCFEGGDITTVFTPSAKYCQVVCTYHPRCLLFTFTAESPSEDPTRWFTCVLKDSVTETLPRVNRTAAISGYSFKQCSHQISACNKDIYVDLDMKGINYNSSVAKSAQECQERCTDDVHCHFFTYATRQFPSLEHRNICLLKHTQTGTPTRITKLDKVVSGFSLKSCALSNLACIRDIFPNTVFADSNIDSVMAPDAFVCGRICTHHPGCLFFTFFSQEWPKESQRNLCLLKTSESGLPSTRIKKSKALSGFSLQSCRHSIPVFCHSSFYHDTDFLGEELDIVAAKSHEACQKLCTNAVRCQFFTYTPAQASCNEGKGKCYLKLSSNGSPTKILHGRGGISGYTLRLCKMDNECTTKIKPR

[3] = read-out: Factor XIa Ki, measured at 25° C.
[4] = measured at 25° C. (no asterisk)

Ki ([1]; measured at 37° C. (*)) [µM] | Ki [2, 3] [µM] | Ki [1, 4] [µM] | Ki [2] [µM] | SMILES
0.161 | 0.00595 |  |  | COC1CCN(c2cccc3c2CCN(C(=O)c2cn(-c4cccc(Cl)c4F)nn2)C3C(=O)Nc2ccc(-c3ncc[nH]3)cc2)CC1 (stereo not shown) [Example 141, N-(4-(1H-Imidazol-2-yl)phenyl)-2-(1-(3-chloro-2-fluorophenyl)-1H-1,2,3-triazole-4-carbonyl)-5-(4-methoxypiperidin-1-yl)-1,2,3,4-tetrahydroisoquinoline-1-carboxamide, 2 TFA]
0.237 | 0.00523 |  |  | O=C(NC12CCC(C(=O)O)(CC1)CC2)C1c2cccc(-c3cncnc3)c2CCN1C(=O)c1cn(-c2cccc(Cl)c2F)nn1 (stereo not shown) [Example 143, 4-(2-{[1-(3-Chloro-2-fluorophenyl)-1H-1,2,3-triazol-4-yl]carbonyl}-5-(pyrimidin-5-yl)-1,2,3,4-tetrahydroisoquinoline-1-amido)bicyclo[2.2.2]octane-1-carboxylic acid, 1 TFA]
> 6 | 2.69 |  |  | COC1CCN(c2cccc3c2CCN(C(=O)c2cc(C)n(-c4ccc(Cl)cc4)c2C)C3C(=O)Nc2ccc(C(=O)O)cc2)CC1 (stereo not shown) [Example 147, 4-(2-(1-(4-chlorophenyl)-2,5-dimethyl-1H-pyrrole-3-carbonyl)-5-(4-methoxypiperidin-1-yl)-1,2,3,4-tetrahydroisoquinoline-1-carboxamido)benzoic acid, TFA salt]
> 6 | 2.6 |  |  | COC1CCN(c2cccc3c2CCN(C(=O)c2cnn(-c4cccc(Cl)c4)c2C(F)(F)F)C3C(=O)Nc2ccc(C(=O)O)cc2)CC1 (stereo not shown) [Example 150, 4-(2-(1-(3-chlorophenyl)-5-(trifluoromethyl)-1H-pyrazole-4-carbonyl)-5-(4-methoxypiperidin-1-yl)-1,2,3,4-tetrahydroisoquinoline-1-carboxamido)benzoic acid, TFA salt]
 | 0.00573 | 0.0622 |  | COc1ncccc1-c1cccc2c1CCN(C(=O)c1cn(-c3cccc(Cl)c3F)nn1)C2C(=O)Nc1ccc(C(=O)O)cc1 (stereo not shown) [Example 153, 4-(2-(1-(3-chloro-2-fluorophenyl)-1H-1,2,3-triazole-4-carbonyl)-5-(2-methoxypyridin-3-yl)-1,2,3,4-tetrahydroisoquinoline-1-carboxamido)benzoic acid, TFA salt]
 | < 0.005 | 0.00526 |  | CN(C)Cc1ccc(-c2cccc3c2CCN(C(=O)c2cn(-c4cccc(Cl)c4F)nn2)C3C(=O)Nc2ccc(C(=O)O)cc2)cc1 (stereo not shown) [Example 154, 4-(2-(1-(3-chloro-2-fluorophenyl)-1H-1,2,3-triazole-4-carbonyl)-5-(4-((dimethylamino)methyl)phenyl)-1,2,3,4-tetrahydroisoquinoline-1-carboxamido)benzoic acid, TFA salt]
 | < 0.005 | 0.0239 |  | NS(=O)(=O)c1cccc(-c2cccc3c2CCN(C(=O)c2cn(-c4cccc(Cl)c4F)nn2)C3C(=O)Nc2ccc(C(=O)O)cc2)c1 (stereo not shown) [Example 155, 4-(2-(1-(3-chloro-2-fluorophenyl)-1H-1,2,3-triazole-4-carbonyl)-5-(3-sulfamoylphenyl)-1,2,3,4-tetrahydroisoquinoline-1-carboxamido)benzoic acid]
 | < 0.005 | 0.0301 |  | Cn1ncc2cc(-c3cccc4c3CCN(C(=O)c3cn(-c5cccc(Cl)c5F)nn3)C4C(=O)Nc3ccc(C(=O)O)cc3)ccc21 (stereo not shown) [Example 156, 4-(2-(1-(3-chloro-2-fluorophenyl)-1H-1,2,3-triazole-4-carbonyl)-5-(1-methyl-1H-indazol-5-yl)-1,2,3,4-tetrahydroisoquinoline-1-carboxamido)benzoic acid]
 | < 0.005 | 0.0295 |  | O=C(O)c1ccc(NC(=O)C2c3cccc(-c4ccc5c(c4)OCO5)c3CCN2C(=O)c2cn(-c3cccc(Cl)c3F)nn2)cc1 (stereo not shown) [Example 157, 4-(5-(benzo[d][1,3]dioxol-5-yl)-2-(1-(3-chloro-2-fluorophenyl)-1H-1,2,3-triazole-4-carbonyl)-1,2,3,4-tetrahydroisoquinoline-1-carboxamido)benzoic acid]
 | 0.0132 | 0.0219 |  | O=C(O)c1ccc(NC(=O)C2c3cccc(-c4cnoc4)c3CCN2C(=O)c2cn(-c3cccc(Cl)c3F)nn2)cc1 (stereo not shown) [Example 159, 4-(2-(1-(3-chloro-2-fluorophenyl)-1H-1,2,3-triazole-4-carbonyl)-5-(isoxazol-4-yl)-1,2,3,4-tetrahydroisoquinoline-1-carboxamido)benzoic acid]
 | < 0.005 | 0.00246 |  | O=C(O)c1ccc(NC(=O)C2c3cccc(-c4ccc5cn[nH]c5c4)c3CCN2C(=O)c2cn(-c3cccc(Cl)c3F)nn2)cc1 (stereo not shown) [Example 161, 4-(2-(1-(3-chloro-2-fluorophenyl)-1H-1,2,3-triazole-4-carbonyl)-5-(1H-indazol-6-yl)-1,2,3,4-tetrahydroisoquinoline-1-carboxamido)benzoic acid]
 | < 0.005 | 0.0499 |  | Cn1cc2ccc(-c3cccc4c3CCN(C(=O)c3cn(-c5cccc(Cl)c5F)nn3)C4C(=O)Nc3ccc(C(=O)O)cc3)cc2n1 (stereo not shown) [Example 162, 4-(2-(1-(3-chloro-2-fluorophenyl)-1H-1,2,3-triazole-4-carbonyl)-5-(2-methyl-2H-indazol-6-yl)-1,2,3,4-tetrahydroisoquinoline-1-carboxamido)benzoic acid]
 | 0.411 | 0.54 |  | COC1CCN(c2cccc3c2CCN(C(=O)c2cn(-c4cccc(Cl)c4F)nn2)C3C(=O)Nc2ccc3c(c2)CCC(=O)N3C)CC1 (stereo not shown) [Example 189, 2-(1-(3-Chloro-2-fluorophenyl)-1H-1,2,3-triazole-4-carbonyl)-5-(4-methoxypiperidin-1-yl)-N-(1-methyl-2-oxo-1,2,3,4-tetrahydroquinolin-6-yl)-1,2,3,4-tetrahydroisoquinoline-1-carboxamide, TFA salt]
 | 0.0981 | 0.163 |  | COC1CCN(c2cccc3c2CCN(C(=O)c2cn(-c4cccc(Cl)c4F)nn2)C3C(=O)Nc2ccc3c(c2)CC(=O)N3)CC1 (stereo not shown) [Example 190, 2-(1-(3-Chloro-2-fluorophenyl)-1H-1,2,3-triazole-4-carbonyl)-5-(4-methoxypiperidin-1-yl)-N-(2-oxoindolin-5-yl)-1,2,3,4-tetrahydroisoquinoline-1-carboxamide, TFA salt]
 | 0.0134 | 0.0123 |  | CC(=O)Nc1cccc2c1CCN(C(=O)c1cn(-c3cccc(Cl)c3F)nn1)C2C(=O)Nc1ccc(C(=O)O)cc1 (stereo not shown) [Example 191, 4-(5-Acetamido-2-(1-(3-chloro-2-fluorophenyl)-1H-1,2,3-triazole-4-carbonyl)-1,2,3,4-tetrahydroisoquinoline-1-carboxamido)benzoic acid]
 | 0.00997 | 0.0556 |  | CN1CCC(NC(=O)c2cccc3c2CCN(C(=O)c2cn(-c4cccc(Cl)c4F)nn2)C3C(=O)Nc2ccc(C(=O)O)cc2)CC1 (stereo not shown) [Example 192, 4-(2-(1-(3-Chloro-2-fluorophenyl)-1H-1,2,3-triazole-4-carbonyl)-5-((1-methylpiperidin-4-yl)carbamoyl)-1,2,3,4-tetrahydroisoquinoline-1-carboxamido)benzoic acid, TFA salt]
 | 0.0199 | 0.00234 |  | O=C(Nc1cccc2c1CCN(C(=O)c1cn(-c3cccc(Cl)c3F)nn1)C2C(=O)Nc1ccc(C(=O)O)cc1)NC1CCCC1 (stereo not shown) [Example 193, 4-(2-(1-(3-Chloro-2-fluorophenyl)-1H-1,2,3-triazole-4-carbonyl)-5-(3-cyclopentylureido)-1,2,3,4-tetrahydroisoquinoline-1-carboxamido)benzoic acid]
 |  | 0.0415 | 0.0571 | O=C(O)c1ccc(NC(=O)C2c3cccc(Cl)c3CCN2C(=O)c2cn(-c3cccc(Cl)c3F)nn2)cc1 (stereo not shown) [Example 194, 4-(5-Chloro-2-(1-(3-chloro-2-fluorophenyl)-1H-1,2,3-triazole-4-carbonyl)-1,2,3,4-tetrahydroisoquinoline-1-carboxamido)benzoic acid]
 | 0.0401 | 0.0309 |  | O=C(O)c1ccc(NC(=O)C2c3cccc(F)c3CCN2C(=O)c2cn(-c3cccc(Cl)c3F)nn2)cc1 (stereo not shown) [Example 195, 4-(2-(1-(3-Chloro-2-fluorophenyl)-1H-1,2,3-triazole-4-carbonyl)-5-fluoro-1,2,3,4-tetrahydroisoquinoline-1-carboxamido)benzoic acid]
 | 0.0071 | 0.0119 |  | O=C(O)c1ccc(NC(=O)C2c3cccc(N4CC[C@H](O)C4=O)c3CCN2C(=O)c2cn(-c3cccc(Cl)c3F)nn2)cc1 (stereo partly drawn) [Example 196, 4-(2-(1-(3-Chloro-2-fluorophenyl)-1H-1,2,3-triazole-4-carbonyl)-5-((S)-3-hydroxy-2-oxopyrrolidin-1-yl)-1,2,3,4-tetrahydroisoquinoline-1-carboxamido)benzoic acid, TFA salt]
 | < 0.005 | 0.01 |  | O=C(O)c1ccc(NC(=O)C2c3cccc(N4CCN(CC(F)(F)F)CC4=O)c3CCN2C(=O)c2cn(-c3cccc(Cl)c3F)nn2)cc1 (stereo not shown) [Example 197, 4-(2-(1-(3-Chloro-2-fluorophenyl)-1H-1,2,3-triazole-4-carbonyl)-5-(2-oxo-4-(2,2,2-trifluoroethyl)piperazin-1-yl)-1,2,3,4-tetrahydroisoquinoline-1-carboxamido)benzoic acid, TFA salt]
 | 0.0495 | 0.121 |  | CN1CCN(c2cccc3c2CCN(C(=O)c2cc(-c4cccc(Cl)c4)no2)C3C(=O)Nc2ccc(C(=O)O)cc2)CC1 (stereo not shown) [Example 198, 4-(2-(3-(3-chlorophenyl)isoxazole-5-carbonyl)-5-(4-methylpiperazin-1-yl)-1,2,3,4-tetrahydroisoquinoline-1-carboxamido)benzoic acid, 2 TFA salt]
> 6 | 2.31 |  |  | CN1CCN(c2cccc3c2CCN(C(=O)c2cn(-c4cccc(Cl)c4)nc2C(F)(F)F)C3C(=O)Nc2ccc(C(=O)O)cc2)CC1 (stereo not shown) [Example 199, 4-(2-(1-(3-chlorophenyl)-3-(trifluoromethyl)-1H-pyrazole-4-carbonyl)-5-(4-methylpiperazin-1-yl)-1,2,3,4-tetrahydroisoquinoline-1-carboxamido)benzoic acid, 2 TFA salt]
